Experimental data as given in patent US7138361B2, “Herbicidal heterocycles” (E. I. du Pont de Nemours and Company, priority 2000, dated 2006).

Legend:
Assay type in all cases: in vivo
[1] = tested on: rice (Oryza saliva); assay: Test C flooded paddy test; settings: for Rice plant response rating: scale 0 to 100, 0 no effect, 100 complete control
How it was run: (§1)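 Rice and three paddy weeds were grown to the 2-leaf stage under flooded conditions, then treated and kept in a greenhouse for 12–14 days. Response was rated visually against untreated controls on a 0–100 scale, where 100 is complete control.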

[2] = tested on: smallflower flatsedge (Cyperus difformis); assay: Test C flooded paddy test; settings: for Flatsedge plant response rating: Flooded Paddy, scale 0 to 100, 0 no effect, 100 complete control; for Plant response rating, Flatsedge: flooded paddy test, scale 0 to 100 (0 no effect, 100 complete control)
How it was run: as §1

[3] = tested on: barnyardgrass (Echinochloa crus-galli); assay: Test C flooded paddy test; settings: for Barnyardgrass plant response rating: scale 0 to 100, 0 no effect, 100 complete control
How it was run: as §1

[4] = tested on: duck salad (Heteranthera limosa); assay: Test C flooded paddy test; settings: for Ducksalad plant response rating: scale 0 to 100, 0 no effect, 100 complete control
How it was run: as §1

[5] = tested on: corn (Zea mays); assay: Test B postemergence; settings: 13 to 15 days
How it was run: (§2)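 Ratings on a 0 to 100 visual scale (100 complete control) compare treated plants with controls 13 to 15 days after application. Treatments were pre- or postemergence sprays of compound in non-phytotoxic solvent with surfactant.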

[6] = tested on: crabgrass (Digitaria sanguinalis); assay: Test B postemergence; settings: 13 to 15 days
How it was run: as §2

[7] = tested on: morning glory (Ipomoea hederacea); assay: Test B postemergence; settings: 13 to 15 days
How it was run: as §2

[8] = tested on: wild oat (Avena fatua); assay: Test B postemergence; settings: 13 to 15 days
How it was run: as §2

[9] = tested on: lambsquarters (Chenopodium album); assay: Test B postemergence; settings: 13 to 15 days
How it was run: as §2

[10] = tested on: giant foxtail (Setaria faberii); assay: Test B postemergence; settings: 13 to 15 days
How it was run: as §2

[11] = tested on: wheat (Triticum aestivum); assay: Test B postemergence; settings: 13 to 15 days
How it was run: as §2

[12] = tested on: cocklebur (Xanthium strumarium); assay: Test B postemergence; settings: 13 to 15 days
How it was run: as §2

[13] = tested on: velvetleaf (Abutilon theophrasti); assay: Test B postemergence; settings: 13 to 15 days
How it was run: as §2

[14] = tested on: blackgrass (Alopecurus myosuroides); assay: Test B postemergence; settings: 13 to 15 days
How it was run: as §2

[15] = tested on: barnyardgrass (Echinochloa crus-galli); assay: Test B postemergence; settings: 13 to 15 days
How it was run: as §2

[16] = tested on: pigweed (Amaranthus retroflexus); assay: Test B postemergence; settings: 13 to 15 days
How it was run: as §2

[17] = tested on: Surinam grass (Brachiaria decumbens); assay: Test B postemergence; settings: 13 to 15 days
How it was run: as §2

[18] = tested on: rice (Oryza saliva); assay: Test B flooded paddy test; settings: Rate 1000 g/ha, scale of 0 to 100 where 0 is no effect and 100 is complete control, visually evaluated after 13 to 15 days
How it was run: (§3)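 Treatment: formulated chemical applied to flooded paddy plants at 2-leaf stage. Hold: greenhouse, 13–15 days. Scoring: visual comparison to controls, 0 (no effect) to 100 (complete control).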

[19] = tested on: smallflower flatsedge (Cyperus difformis); assay: Test B flooded paddy test; settings: Rate 1000 g/ha, scale of 0 to 100 where 0 is no effect and 100 is complete control, visually evaluated after 13 to 15 days
How it was run: as §3

[20] = tested on: barnyardgrass (Echinochloa crus-galli); assay: Test B flooded paddy test; settings: Rate 1000 g/ha, scale of 0 to 100 where 0 is no effect and 100 is complete control, visually evaluated after 13 to 15 days
How it was run: as §3

[21] = tested on: duck salad (Heteranthera limosa); assay: Test B flooded paddy test; settings: Rate 1000 g/ha, scale of 0 to 100 where 0 is no effect and 100 is complete control, visually evaluated after 13 to 15 days
How it was run: as §3

[22] = tested on: corn (Zea mays); assay: Test B preemergence
How it was run: as §2

[23] = tested on: crabgrass (Digitaria sanguinalis); assay: Test B preemergence
How it was run: as §2

[24] = tested on: morning glory (Ipomoea hederacea); assay: Test B preemergence
How it was run: as §2

[25] = tested on: rice (Oryza saliva); assay: Test B preemergence
How it was run: as §2

[26] = tested on: lambsquarters (Chenopodium album); assay: Test B preemergence
How it was run: as §2

[27] = tested on: giant foxtail (Setaria faberii); assay: Test B preemergence
How it was run: as §2

[28] = tested on: cocklebur (Xanthium strumarium); assay: Test B preemergence; settings: scale 0 to 100, 0 no effect, 100 complete control
How it was run: as §2

[29] = tested on: velvetleaf (Abutilon theophrasti); assay: Test B preemergence
How it was run: as §2

[30] = tested on: barnyardgrass (Echinochloa crus-galli); assay: Test B preemergence
How it was run: as §2

[31] = tested on: pigweed (Amaranthus retroflexus); assay: Test B preemergence
How it was run: as §2

[32] = tested on: Surinam grass (Brachiaria decumbens); assay: Test B preemergence
How it was run: as §2

[33] = Flooded Paddy, Rate 500 g/ha, scale 0 to 100
[34] = flooded paddy test, Rate 62 g/ha, scale 0 to 100 (0 no effect, 100 complete control)
[35] = flooded paddy test, Rate 125 g/ha, scale 0 to 100 (0 no effect, 100 complete control)
[36] = Rate 125 g/ha, scale 0 (no effect) to 100 (complete control)
[37] = Rate 500 g/ha, scale 0 to 100, 0 is no effect, 100 is complete control
[38] = Preemergence, Rate 500 g/ha, scale 0 to 100, 0 no effect, 100 complete control
[39] = preemergence, Rate 125 g/ha, scale 0 to 100, 0 no effect, 100 complete control
[40] = preemergence, Rate 125 g/ha, scale of 0 to 100 where 0 is no effect and 100 is complete control, 13 to 15 days

Cc1ccn(C2SCN(c3cccc(C(F)(F)F)c3)C2=O)n1 (stereo not drawn) [Compound 19]
Plant response rating, Rice [1, 33]: 0 | Rice plant response rating ([1]; Flooded Paddy, Rate 250 g/ha): 0 | Plant response rating, Rice [1, 34]: 0 | Plant response rating, Rice [1, 35]: 0 | Flatsedge plant response rating ([2]; Rate 250 g/ha): 0 | Flatsedge plant response rating ([2]; Rate 500 g/ha): 30 | Plant response rating, Flatsedge ([2]; Rate 62 g/ha): 0 | Plant response rating, Flatsedge ([2]; Rate 125 g/ha): 0 | Plant response rating, Barnyardgrass [3, 33]: 0 | Barnyardgrass plant response rating ([3]; Flooded Paddy, Rate 250 g/ha): 0 | Plant response rating, Barnyardgrass [3, 34]: 0 | Plant response rating, Barnyardgrass [3, 35]: 0 | Plant response rating, Ducksalad [4, 33]: 0 | Ducksalad plant response rating ([4]; Flooded Paddy, Rate 250 g/ha): 0 | Plant response rating, Ducksalad [4, 34]: 0 | Plant response rating, Ducksalad [4, 35]: 0 | Plant response rating, Corn [5, 36]: 0 | Plant response rating, Corn [5, 37]: 0 | Plant response rating, Crabgrass [6, 36]: 0 | Plant response rating, Crabgrass [6, 37]: 20 | Plant response rating, Morningglory [7, 36]: 20 | Plant response rating, Morningglory [7, 37]: 30 | Plant response rating, Wild Oat [8, 36]: 0 | Plant response rating, Wild Oat [8, 37]: 0 | Plant response rating, Lambsquarters [9, 36]: 10 | Plant response rating, Lambsquarters [9, 37]: 70 | Plant response rating, Foxtail, Giant [10, 36]: 0 | Plant response rating, Foxtail, Giant [10, 37]: 0 | Plant response rating, Wheat [11, 36]: 0 | Plant response rating, Wheat [11, 37]: 0 | Plant response rating, Cocklebur [12, 36]: 20 | Plant response rating, Cocklebur [12, 37]: 20 | Plant response rating, Velvetleaf [13, 36]: 10 | Plant response rating, Velvetleaf [13, 37]: 20 | Plant response rating, Blackgrass [14, 36]: 0 | Plant response rating, Blackgrass [14, 37]: 0 | Plant response rating, Barnyardgrass [15, 36]: 0 | Plant response rating, Barnyardgrass [15, 37]: 0 | Plant response rating, Pigweed [16, 36]: 0 | Plant response rating, Pigweed [16, 37]: 0 | Plant response rating, Surinam grass [17, 36]: 0 | Plant response rating, Surinam grass [17, 37]: 10 | Plant response rating, Rice [18]: 0 | Plant response rating, Flatsedge [19]: 90 | Plant response rating, Barnyardgrass [20]: 60 | Plant response rating, Ducksalad [21]: 80 | Plant response rating, Corn [22, 38]: 0 | Plant response rating, Corn [22, 39]: 0 | Plant response rating, Crabgrass [23, 38]: 0 | Plant response rating, Crabgrass [23, 39]: 0 | Plant response rating, Morningglory [24, 38]: 0 | Plant response rating, Morningglory [24, 39]: 0 | Plant response rating, Rice [25, 38]: 0 | Plant response rating, Rice [25, 39]: 0 | Plant response rating, Lambsquarters [26, 38]: 60 | Plant response rating, Lambsquarters [26, 39]: 0 | Plant response rating, Foxtail, Giant [27, 38]: 0 | Plant response rating, Foxtail, Giant [27, 39]: 0 | Plant response rating, Cocklebur ([28]; Preemergence, Rate 500 g/ha): 0 | Plant response rating, Cocklebur ([28]; preemergence, Rate 125 g/ha): 0 | Plant response rating, Velvetleaf [29, 38]: 0 | Plant response rating, Velvetleaf [29, 39]: 0 | Plant response rating, Barnyardgrass [30, 38]: 0 | Plant response rating, Barnyardgrass [30, 39]: 0 | Plant response rating, Pigweed [31, 38]: 0 | Plant response rating, Pigweed [31, 39]: 0 | Plant response rating, Surinam grass [32, 38]: 20 | Plant response rating, Surinam grass [32, 39]: 0

Cc1cc(N2CCC(n3ccc(C(C)(C)C)n3)C2=O)ccc1Cl (stereo not drawn) [Compound 53]
Rice plant response rating ([1]; Flooded Paddy, Rate 250 g/ha): 0 | Rice plant response rating ([1]; Flooded Paddy, Rate 500 g/ha): 0 | Plant response rating, Rice [1, 34]: 0 | Plant response rating, Rice [1, 35]: 0 | Flatsedge plant response rating ([2]; Rate 250 g/ha): 90 | Flatsedge plant response rating ([2]; Rate 500 g/ha): 100 | Plant response rating, Flatsedge ([2]; Rate 62 g/ha): 80 | Plant response rating, Flatsedge ([2]; Rate 125 g/ha): 90 | Barnyardgrass plant response rating ([3]; Flooded Paddy, Rate 250 g/ha): 70 | Barnyardgrass plant response rating ([3]; Flooded Paddy, Rate 500 g/ha): 100 | Plant response rating, Barnyardgrass [3, 34]: 20 | Plant response rating, Barnyardgrass [3, 35]: 30 | Ducksalad plant response rating ([4]; Flooded Paddy, Rate 250 g/ha): 50 | Ducksalad plant response rating ([4]; Flooded Paddy, Rate 500 g/ha): 60 | Plant response rating, Ducksalad [4, 34]: 20 | Plant response rating, Ducksalad [4, 35]: 40 | Plant response rating, Corn [5, 36]: 0 | Plant response rating, Corn [5, 37]: 10 | Plant response rating, Crabgrass [6, 36]: 0 | Plant response rating, Crabgrass [6, 37]: 0 | Plant response rating, Morningglory [7, 36]: 0 | Plant response rating, Morningglory [7, 37]: 10 | Plant response rating, Wild Oat [8, 36]: 0 | Plant response rating, Wild Oat [8, 37]: 0 | Plant response rating, Lambsquarters [9, 36]: 40 | Plant response rating, Lambsquarters [9, 37]: 80 | Plant response rating, Foxtail, Giant [10, 36]: 0 | Plant response rating, Foxtail, Giant [10, 37]: 0 | Plant response rating, Wheat [11, 36]: 0 | Plant response rating, Wheat [11, 37]: 0 | Plant response rating, Cocklebur [12, 36]: 0 | Plant response rating, Cocklebur [12, 37]: 0 | Plant response rating, Velvetleaf [13, 36]: 0 | Plant response rating, Velvetleaf [13, 37]: 0 | Plant response rating, Blackgrass [14, 36]: 0 | Plant response rating, Blackgrass [14, 37]: 0 | Plant response rating, Barnyardgrass [15, 36]: 0 | Plant response rating, Barnyardgrass [15, 37]: 0 | Plant response rating, Pigweed [16, 36]: 80 | Plant response rating, Pigweed [16, 37]: 90 | Plant response rating, Surinam grass [17, 36]: 0 | Plant response rating, Surinam grass [17, 37]: 0 | Plant response rating, Rice [18]: 20 | Plant response rating, Flatsedge [19]: 90 | Plant response rating, Barnyardgrass [20]: 100 | Plant response rating, Ducksalad [21]: 30 | Plant response rating, Corn [22, 38]: 0 | Plant response rating, Corn [22, 40]: 0 | Plant response rating, Crabgrass [23, 38]: 0 | Plant response rating, Crabgrass [23, 40]: 0 | Plant response rating, Morningglory [24, 38]: 0 | Plant response rating, Morningglory [24, 40]: 0 | Plant response rating, Rice [25, 38]: 0 | Plant response rating, Rice [25, 40]: 0 | Plant response rating, Lambsquarters [26, 38]: 100 | Plant response rating, Lambsquarters [26, 40]: 100 | Plant response rating, Foxtail, Giant [27, 38]: 0 | Plant response rating, Foxtail, Giant [27, 40]: 0 | Plant response rating, Cocklebur ([28]; Preemergence, Rate 500 g/ha): 0 | Plant response rating, Velvetleaf [29, 38]: 0 | Plant response rating, Velvetleaf [29, 40]: 0 | Plant response rating, Barnyardgrass [30, 38]: 90 | Plant response rating, Barnyardgrass [30, 40]: 0 | Plant response rating, Pigweed [31, 38]: 100 | Plant response rating, Pigweed [31, 40]: 100 | Plant response rating, Surinam grass [32, 38]: 0 | Plant response rating, Surinam grass [32, 40]: 0
